Laboratory results taken from publication PMC4634248 (Influenza and Other Respiratory Viruses, 2013).
Entries after “also recorded” stand apart in the source; their conditions may differ.

Test system: NA activity of A(H1N1)pdm09 viruses with the H275Y substitution
Assay type: biochemical, influenza A(H1N1)pdm09 virus

Structure (SMILES)	IC50 values of H275Y mutants relative to those of viruses with 275H	resistance / sensitivity of H275Y mutant viruses to the NA inhibitor	fold increased IC50 values (decreased susceptibility) of H275Y mutant viruses compared with 275H
[H]/N=C(\N)N[C@H]1C=C(C(=O)O)O[C@@H]([C@H](OC)[C@H](O)CO)[C@@H]1NC(C)=O [laninamivir]	comparable	sensitive	–
CC(=O)N[C@H]1[C@H]([C@H](O)[C@H](O)CO)OC(C(=O)O)=C[C@@H]1N=C(N)N [zanamivir]	comparable	sensitive	–
CCC(CC)[C@H](NC(C)=O)[C@@H]1[C@H](O)[C@@H](C(=O)O)C[C@H]1N=C(N)N [peramivir]	–	resistance; also recorded: resistant	~140 fold
CCC(CC)O[C@@H]1C=C(C(=O)O)C[C@H](N)[C@H]1NC(C)=O [oseltamivir, oseltamivir carboxylate]	–	resistance; also recorded: resistant	about 400 fold
